Earlier results on three compounds are cited in patent US20220031737A1, “PHARMACEUTICAL COMPOSITIONS COMPRISING CHROMIUM AND CARBOHYDRATE BLOCKERS” (GluCare LLC, priority 2016, published 2022).

For data set [1] the following is noted: 1,000 μg of chromium per day.
The conditions of data set [2]: overweight African-American females, caloric restriction and exercise combined with oral NBC.
For data set [3] the following is noted: Sprague-Dawley rats, gavage, % of control.

As to `[Cr]` [chromium], the “Relief of symptoms of type 2 diabetes” value in data set [1] is recorded as “highly effective”.

As for niacin-bound chromium [NBC], in data set [2], the “Fat loss and muscle loss compared to control group without NBC supplement” value was “increased fat loss and reduced muscle loss significantly”.

On to `O=C[C@H](O)[C@@H](O)[C@@H](O)CO` [L-arabinose], for which the “Glucose elevations above baseline over four hours following rice starch challenge, of control” value in data set [3] is on record as 85%.
